Reference: paper PMC3399817 (PLoS ONE, 2012)

Key:
Assay in all cases: KINOMEscan
Type in all cases: binding
ASK1 = target: T1, ASK1 (Homo sapiens, UniProt Q99683); conditions: ASK1, 1 uM
T1 construct: purchased Ambit KINOMEscan (DiscoverX)
Summary of the method: (§1)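 Binding assay, no enzymatic read-out; all compounds tested at 1 μM to find kinases whose substrate binding they inhibit.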

CAMK1G = target: T2, CAMK1G (Homo sapiens, UniProt Q96NX5); conditions: 1 uM
T2 construct: purchased Ambit KINOMEscan (DiscoverX)
Summary of the method: as §1

CDK9 = target: T3, CDK9 (Homo sapiens, UniProt P50750); conditions: for % binding compared to no inhibitor control: CDK9, 1 uM
T3 construct: purchased Ambit KINOMEscan (DiscoverX)
Summary of the method: as §1

CSNK2A1 = target: T4, CSNK2A1 (Homo sapiens, UniProt P68400); conditions: CSNK2A1, 1 uM
T4 construct: purchased Ambit KINOMEscan (DiscoverX)
Summary of the method: as §1

DMPK2 = target: T5, DMPK2 (Homo sapiens, UniProt Q6DT37); conditions: DMPK2, 1 uM
T5 construct: purchased Ambit KINOMEscan (DiscoverX)
Summary of the method: as §1

EGFR(L858R) = target: T6, EGFR(L858R) (Homo sapiens, UniProt P00533, L858R); conditions: 1 uM
T6 construct: purchased Ambit KINOMEscan (DiscoverX)
Summary of the method: as §1

ERK1 = target: T7, ERK1 (Homo sapiens, UniProt P27361); conditions: ERK1, 1 uM
T7 construct: purchased Ambit KINOMEscan (DiscoverX)
Summary of the method: as §1

ERK8 = target: T8, ERK8 (Homo sapiens, UniProt Q8TD08); conditions: ERK8, 1 uM
T8 construct: purchased Ambit KINOMEscan (DiscoverX)
Summary of the method: as §1

GAK = target: T9, GAK (Homo sapiens, UniProt O14976); conditions: 1 uM
T9 construct: purchased Ambit KINOMEscan (DiscoverX)
Summary of the method: as §1

ICK = target: T10, ICK (Homo sapiens, UniProt Q9UPZ9); conditions: 1 uM
T10 construct: purchased Ambit KINOMEscan (DiscoverX)
Summary of the method: as §1

IKK-beta = target: T11, IKK-beta (Homo sapiens, UniProt O14920); conditions: 1 uM
T11 construct: purchased Ambit KINOMEscan (DiscoverX)
Summary of the method: as §1

[1] = target: T12, JAK1(JH2domain-pseudokinase) (Homo sapiens, UniProt P23458); conditions: 1 uM
T12 construct: JAK1(JH2domain-pseudokinase); purchased Ambit KINOMEscan (DiscoverX)
Summary of the method: as §1

LATS2 = target: T13, LATS2 (Homo sapiens, UniProt Q9NRM7); conditions: LATS2, 1 uM
T13 construct: purchased Ambit KINOMEscan (DiscoverX)
Summary of the method: as §1

LIMK1 = target: T14, LIMK1 (Homo sapiens, UniProt P53667); conditions: LIMK1, 1 uM
T14 construct: purchased Ambit KINOMEscan (DiscoverX)
Summary of the method: as §1

MAP4K2 = target: T15, MAP4K2 (Homo sapiens, UniProt Q12851); conditions: for % binding compared to no inhibitor control: MAP4K2, 1 uM
T15 construct: purchased Ambit KINOMEscan (DiscoverX)
T15 sequence (Q12851 1-820): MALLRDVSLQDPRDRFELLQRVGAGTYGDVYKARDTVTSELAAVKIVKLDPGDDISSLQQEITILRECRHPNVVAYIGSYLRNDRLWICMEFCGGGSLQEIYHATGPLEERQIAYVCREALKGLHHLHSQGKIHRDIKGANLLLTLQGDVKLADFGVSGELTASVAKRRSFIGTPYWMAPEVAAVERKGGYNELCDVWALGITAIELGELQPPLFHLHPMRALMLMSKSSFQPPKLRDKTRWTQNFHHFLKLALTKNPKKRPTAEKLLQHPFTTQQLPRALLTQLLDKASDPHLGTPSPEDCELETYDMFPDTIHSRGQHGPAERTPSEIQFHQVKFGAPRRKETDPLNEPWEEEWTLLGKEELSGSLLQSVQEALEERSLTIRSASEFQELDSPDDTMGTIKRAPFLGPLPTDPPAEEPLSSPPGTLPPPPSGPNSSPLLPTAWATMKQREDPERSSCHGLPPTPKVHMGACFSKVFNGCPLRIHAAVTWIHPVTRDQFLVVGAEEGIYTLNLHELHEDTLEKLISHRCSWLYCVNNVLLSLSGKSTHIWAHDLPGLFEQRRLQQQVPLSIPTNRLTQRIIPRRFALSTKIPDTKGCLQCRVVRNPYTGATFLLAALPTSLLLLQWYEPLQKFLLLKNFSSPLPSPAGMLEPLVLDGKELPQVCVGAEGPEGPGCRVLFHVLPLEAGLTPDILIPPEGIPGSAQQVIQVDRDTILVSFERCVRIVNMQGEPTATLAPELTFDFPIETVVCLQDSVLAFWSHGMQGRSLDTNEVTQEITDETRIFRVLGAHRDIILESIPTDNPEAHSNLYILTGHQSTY
Summary of the method: as §1

MAPKAPK5 = target: T16, MAPKAPK5 (Homo sapiens, UniProt Q8IW41); conditions: MAPKAPK5, 1 uM
T16 construct: purchased Ambit KINOMEscan (DiscoverX)
Summary of the method: as §1

MAST1 = target: T17, MAST1 (Homo sapiens, UniProt Q9Y2H9); conditions: MAST1, 1 uM
T17 construct: purchased Ambit KINOMEscan (DiscoverX)
Summary of the method: as §1

MLCK = target: T18, MLCK (Homo sapiens, UniProt Q32MK0); conditions: 1 uM
T18 construct: purchased Ambit KINOMEscan (DiscoverX)
Summary of the method: as §1

NDR1 = target: T19, NDR1 (Homo sapiens, UniProt Q15208); conditions: NDR1, 1 uM
T19 construct: purchased Ambit KINOMEscan (DiscoverX)
Summary of the method: as §1

PCTK3 = target: T20, PCTK3 (Homo sapiens, UniProt Q07002); conditions: PCTK3, 1 uM
T20 construct: purchased Ambit KINOMEscan (DiscoverX)
Summary of the method: as §1

PRKCD = target: T21, PRKCD (Homo sapiens, UniProt Q05655); conditions: 1 uM
T21 construct: purchased Ambit KINOMEscan (DiscoverX)
Summary of the method: as §1

PRKX = target: T22, PRKX (Homo sapiens, UniProt P51817); conditions: 1 uM
T22 construct: purchased Ambit KINOMEscan (DiscoverX)
Summary of the method: as §1

[2] = target: T23, RPS6KA5(Kin.Dom.1-N-terminal) (Homo sapiens, UniProt O75582); conditions: 1 uM
T23 construct: RPS6KA5(Kin.Dom.1-N-terminal); purchased Ambit KINOMEscan (DiscoverX)
Summary of the method: as §1

SIK = target: T24, SIK (Homo sapiens, UniProt P57059); conditions: 1 uM
T24 construct: purchased Ambit KINOMEscan (DiscoverX)
Summary of the method: as §1

SRPK3 = target: T25, SRPK3 (Homo sapiens, UniProt Q9UPE1); conditions: SRPK3, 1 uM
T25 construct: purchased Ambit KINOMEscan (DiscoverX)
Summary of the method: as §1

TAO1 = target: T26, TAO1 (Homo sapiens, UniProt Q9UL54); conditions: TAO1, 1 uM
T26 construct: purchased Ambit KINOMEscan (DiscoverX)
Summary of the method: as §1

TXK = target: T27, TXK (Homo sapiens, UniProt P42681); conditions: 1 uM
T27 construct: purchased Ambit KINOMEscan (DiscoverX)
Summary of the method: as §1

ULK3 = target: T28, ULK3 (Homo sapiens, UniProt Q6PHR2); conditions: ULK3, 1 uM
T28 construct: purchased Ambit KINOMEscan (DiscoverX)
Summary of the method: as §1

p38-gamma = target: T29, p38-gamma (Homo sapiens, UniProt P53778); conditions: 1 uM
T29 construct: purchased Ambit KINOMEscan (DiscoverX)
Summary of the method: as §1

T3 sequence (P50750 whole entry): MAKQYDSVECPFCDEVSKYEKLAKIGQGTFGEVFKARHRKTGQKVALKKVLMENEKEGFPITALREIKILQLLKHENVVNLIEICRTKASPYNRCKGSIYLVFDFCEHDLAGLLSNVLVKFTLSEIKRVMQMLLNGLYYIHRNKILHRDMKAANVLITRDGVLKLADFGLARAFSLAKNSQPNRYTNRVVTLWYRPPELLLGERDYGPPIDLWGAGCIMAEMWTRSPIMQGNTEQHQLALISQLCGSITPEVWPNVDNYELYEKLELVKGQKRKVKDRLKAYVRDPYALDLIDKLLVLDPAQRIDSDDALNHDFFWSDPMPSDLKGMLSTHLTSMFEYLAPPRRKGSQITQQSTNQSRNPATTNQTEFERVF
T6 sequence (P00533 25-1210 L858R): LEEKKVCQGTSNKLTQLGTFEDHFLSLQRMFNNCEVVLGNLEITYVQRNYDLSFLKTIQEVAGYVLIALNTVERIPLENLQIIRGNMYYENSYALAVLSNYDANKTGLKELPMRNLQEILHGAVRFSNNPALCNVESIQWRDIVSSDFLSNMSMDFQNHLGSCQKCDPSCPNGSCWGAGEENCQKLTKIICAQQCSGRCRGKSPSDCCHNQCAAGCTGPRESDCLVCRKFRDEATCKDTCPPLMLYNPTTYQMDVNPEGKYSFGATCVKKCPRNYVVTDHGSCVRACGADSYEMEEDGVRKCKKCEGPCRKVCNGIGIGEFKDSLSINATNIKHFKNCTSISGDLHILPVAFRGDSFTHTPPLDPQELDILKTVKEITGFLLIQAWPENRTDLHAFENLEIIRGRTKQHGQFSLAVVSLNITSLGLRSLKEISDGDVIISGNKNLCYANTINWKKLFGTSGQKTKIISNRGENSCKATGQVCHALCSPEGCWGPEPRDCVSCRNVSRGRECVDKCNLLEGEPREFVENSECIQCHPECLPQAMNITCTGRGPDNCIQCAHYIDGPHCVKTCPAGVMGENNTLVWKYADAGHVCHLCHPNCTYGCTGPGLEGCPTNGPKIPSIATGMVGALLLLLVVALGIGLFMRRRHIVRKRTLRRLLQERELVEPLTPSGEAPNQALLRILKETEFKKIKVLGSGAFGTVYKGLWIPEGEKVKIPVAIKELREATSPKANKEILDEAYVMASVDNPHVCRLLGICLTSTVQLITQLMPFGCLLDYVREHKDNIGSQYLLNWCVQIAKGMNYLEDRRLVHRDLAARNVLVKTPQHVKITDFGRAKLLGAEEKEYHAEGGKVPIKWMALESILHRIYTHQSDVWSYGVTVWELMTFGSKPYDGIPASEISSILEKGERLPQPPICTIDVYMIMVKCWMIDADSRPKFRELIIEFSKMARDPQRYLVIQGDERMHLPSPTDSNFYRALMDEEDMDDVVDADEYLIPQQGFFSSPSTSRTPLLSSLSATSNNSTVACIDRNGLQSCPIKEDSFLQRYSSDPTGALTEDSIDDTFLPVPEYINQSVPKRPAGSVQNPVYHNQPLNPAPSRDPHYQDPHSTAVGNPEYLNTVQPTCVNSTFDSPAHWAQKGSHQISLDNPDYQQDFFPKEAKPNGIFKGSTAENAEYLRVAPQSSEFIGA
T10 sequence (Q9UPZ9 whole entry): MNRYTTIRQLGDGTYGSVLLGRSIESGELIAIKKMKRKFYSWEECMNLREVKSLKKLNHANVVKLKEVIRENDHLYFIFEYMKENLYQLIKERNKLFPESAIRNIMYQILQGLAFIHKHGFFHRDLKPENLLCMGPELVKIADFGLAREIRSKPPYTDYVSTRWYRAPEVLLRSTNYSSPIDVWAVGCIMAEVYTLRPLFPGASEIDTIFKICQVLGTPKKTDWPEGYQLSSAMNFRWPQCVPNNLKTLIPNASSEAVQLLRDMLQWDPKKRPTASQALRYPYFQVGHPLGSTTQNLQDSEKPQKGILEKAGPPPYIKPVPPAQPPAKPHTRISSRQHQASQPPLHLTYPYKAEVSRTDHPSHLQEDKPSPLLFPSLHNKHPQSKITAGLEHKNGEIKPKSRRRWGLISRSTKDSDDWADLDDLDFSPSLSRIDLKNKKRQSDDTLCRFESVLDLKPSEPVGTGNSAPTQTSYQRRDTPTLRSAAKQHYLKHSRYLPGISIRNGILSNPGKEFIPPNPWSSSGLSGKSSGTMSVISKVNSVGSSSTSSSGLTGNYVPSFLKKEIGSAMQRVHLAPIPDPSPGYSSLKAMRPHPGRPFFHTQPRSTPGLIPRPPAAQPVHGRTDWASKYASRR
T19 sequence (Q15208 whole entry): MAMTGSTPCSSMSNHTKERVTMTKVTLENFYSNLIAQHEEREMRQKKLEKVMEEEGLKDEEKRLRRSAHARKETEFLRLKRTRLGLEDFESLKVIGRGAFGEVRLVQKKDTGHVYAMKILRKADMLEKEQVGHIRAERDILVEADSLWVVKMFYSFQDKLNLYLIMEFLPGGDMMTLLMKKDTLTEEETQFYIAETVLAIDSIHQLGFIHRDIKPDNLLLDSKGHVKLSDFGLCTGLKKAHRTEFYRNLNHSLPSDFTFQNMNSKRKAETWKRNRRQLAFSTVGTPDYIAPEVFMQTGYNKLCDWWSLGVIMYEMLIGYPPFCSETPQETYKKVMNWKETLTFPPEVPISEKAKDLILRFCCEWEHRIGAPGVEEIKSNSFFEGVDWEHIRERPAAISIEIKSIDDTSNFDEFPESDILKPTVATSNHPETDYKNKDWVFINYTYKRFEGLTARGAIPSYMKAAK
T17 sequence (Q9Y2H9 whole entry): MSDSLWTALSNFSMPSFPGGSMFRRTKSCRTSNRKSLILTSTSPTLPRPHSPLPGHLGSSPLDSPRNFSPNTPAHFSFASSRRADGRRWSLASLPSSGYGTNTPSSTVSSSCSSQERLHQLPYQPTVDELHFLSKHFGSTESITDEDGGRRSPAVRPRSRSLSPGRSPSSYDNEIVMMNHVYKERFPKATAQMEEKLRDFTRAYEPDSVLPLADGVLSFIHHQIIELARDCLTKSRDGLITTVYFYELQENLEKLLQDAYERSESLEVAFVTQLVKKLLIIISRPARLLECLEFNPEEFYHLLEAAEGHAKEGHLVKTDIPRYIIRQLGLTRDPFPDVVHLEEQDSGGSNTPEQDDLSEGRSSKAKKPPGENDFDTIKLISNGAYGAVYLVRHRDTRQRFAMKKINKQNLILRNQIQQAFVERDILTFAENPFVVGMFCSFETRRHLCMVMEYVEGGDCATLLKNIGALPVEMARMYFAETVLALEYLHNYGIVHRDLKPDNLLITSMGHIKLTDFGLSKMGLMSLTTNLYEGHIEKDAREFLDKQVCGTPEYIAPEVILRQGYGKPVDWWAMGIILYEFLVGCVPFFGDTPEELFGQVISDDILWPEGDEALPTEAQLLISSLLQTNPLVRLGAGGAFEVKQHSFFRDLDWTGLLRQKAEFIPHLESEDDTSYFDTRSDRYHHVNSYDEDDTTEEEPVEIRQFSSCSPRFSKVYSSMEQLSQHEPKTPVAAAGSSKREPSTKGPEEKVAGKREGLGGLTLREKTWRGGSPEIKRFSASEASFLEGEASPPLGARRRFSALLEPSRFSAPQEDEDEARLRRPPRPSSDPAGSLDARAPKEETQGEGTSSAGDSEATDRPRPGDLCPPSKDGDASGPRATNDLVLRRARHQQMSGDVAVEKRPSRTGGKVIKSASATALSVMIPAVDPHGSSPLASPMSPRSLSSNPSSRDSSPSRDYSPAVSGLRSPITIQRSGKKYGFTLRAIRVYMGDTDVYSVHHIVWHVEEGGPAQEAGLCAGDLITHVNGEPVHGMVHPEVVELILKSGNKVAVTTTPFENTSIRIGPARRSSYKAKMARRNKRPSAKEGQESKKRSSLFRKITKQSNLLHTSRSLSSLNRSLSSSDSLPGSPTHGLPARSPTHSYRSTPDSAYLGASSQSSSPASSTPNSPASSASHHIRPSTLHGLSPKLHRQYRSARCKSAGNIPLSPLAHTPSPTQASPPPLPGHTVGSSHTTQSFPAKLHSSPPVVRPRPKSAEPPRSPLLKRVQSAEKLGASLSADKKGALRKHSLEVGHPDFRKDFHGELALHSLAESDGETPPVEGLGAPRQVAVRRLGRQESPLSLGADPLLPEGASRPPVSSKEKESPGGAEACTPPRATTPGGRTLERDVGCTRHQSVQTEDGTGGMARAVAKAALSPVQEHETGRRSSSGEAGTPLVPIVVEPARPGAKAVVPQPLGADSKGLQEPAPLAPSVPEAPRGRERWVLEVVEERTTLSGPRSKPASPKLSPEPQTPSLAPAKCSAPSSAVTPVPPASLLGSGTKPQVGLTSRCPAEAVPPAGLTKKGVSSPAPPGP
T23 sequence (O75582 1-387 limits assumed): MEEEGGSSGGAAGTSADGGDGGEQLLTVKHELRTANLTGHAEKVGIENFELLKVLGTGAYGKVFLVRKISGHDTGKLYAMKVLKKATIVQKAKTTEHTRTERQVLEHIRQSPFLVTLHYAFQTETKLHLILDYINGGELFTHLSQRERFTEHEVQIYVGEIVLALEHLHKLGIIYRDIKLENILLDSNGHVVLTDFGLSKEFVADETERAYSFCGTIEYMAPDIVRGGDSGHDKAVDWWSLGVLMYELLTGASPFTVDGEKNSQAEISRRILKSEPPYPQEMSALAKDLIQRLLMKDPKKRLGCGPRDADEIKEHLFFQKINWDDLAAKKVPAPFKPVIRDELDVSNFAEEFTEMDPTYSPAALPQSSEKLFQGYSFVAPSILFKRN
T12 sequence (P23458 583-855 limits assumed): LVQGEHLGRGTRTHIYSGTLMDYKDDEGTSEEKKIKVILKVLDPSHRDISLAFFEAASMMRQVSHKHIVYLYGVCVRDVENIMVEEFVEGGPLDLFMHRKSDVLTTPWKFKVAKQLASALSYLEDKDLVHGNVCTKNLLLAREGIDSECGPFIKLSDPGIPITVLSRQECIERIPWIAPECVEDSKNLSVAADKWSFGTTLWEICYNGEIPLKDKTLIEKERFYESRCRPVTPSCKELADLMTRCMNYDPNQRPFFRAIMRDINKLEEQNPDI

Structure (SMILES) | % binding compared to no inhibitor control (ASK1) | % binding compared to no inhibitor control (CAMK1G) | % binding compared to no inhibitor control (CDK9) | % binding compared to no inhibitor control (CSNK2A1) | % binding compared to no inhibitor control (DMPK2) | % binding compared to no inhibitor control (EGFR(L858R)) | % binding compared to no inhibitor control (ERK1) | % binding compared to no inhibitor control (ERK8) | % binding compared to no inhibitor control (GAK) | % binding compared to no inhibitor control (ICK) | % binding compared to no inhibitor control (IKK-beta) | % binding compared to no inhibitor control [1] | % binding compared to no inhibitor control (LATS2) | % binding compared to no inhibitor control (LIMK1) | % binding compared to no inhibitor control (MAP4K2) | % binding compared to no inhibitor control (MAPKAPK5) | % binding compared to no inhibitor control (MAST1) | % binding compared to no inhibitor control (MLCK) | % binding compared to no inhibitor control (NDR1) | % binding compared to no inhibitor control (PCTK3) | also measured
COc1ccccc1Nc1nc(-c2ccc(OC)c(OC)c2)cc2nccn12 [BAY derivative 6] | 100% | 98% | 100% | 86% | 88% | 88% | 100% | 98% | 43% | 100% | 89% | 1.2% | 88% | 91% | 100% | 100% | 74% | 100% | 100% | 100% | % binding compared to no inhibitor control (PRKCD): 100%; % binding compared to no inhibitor control (PRKX): 73%; % binding compared to no inhibitor control [2]: 89%; % binding compared to no inhibitor control (SIK): 100%; % binding compared to no inhibitor control (SRPK3): 100%; % binding compared to no inhibitor control (TAO1): 96%; % binding compared to no inhibitor control (TXK): 78%; % binding compared to no inhibitor control (ULK3): 100%; % binding compared to no inhibitor control (p38-gamma): 56%
COc1ccc(-c2cc3nccn3c(Nc3ncccc3C(N)=O)n2)cc1OC.Cl.Cl [BAY61-3606, 2-[7-(3,4-dimethoxyphenyl)-imidazo [1,2-c]pyrimidin-5-ylamino] nicotinamide dihydrochloride, reference compound] | 100% | 82% | 56% | 70% | 86% | 100% | 100% | 92% | 30% | 23% | 37% | 80% | 45% | 100% | 6% | 100% | 52% | 100% | 80% | 92% | % inhibition ATP binding (CDK9; CDK9, KINOMEscan, 1 μM): 44%; % inhibition ATP binding (MAP4K2; MAP4K2, KINOMEscan, 1 μM): 94%; % binding compared to no inhibitor control (PRKCD): 94%; % binding compared to no inhibitor control (PRKX): 75%; % binding compared to no inhibitor control [2]: 90%; % binding compared to no inhibitor control (SIK): 80%; % binding compared to no inhibitor control (SRPK3): 74%; % binding compared to no inhibitor control (TAO1): 100%; % binding compared to no inhibitor control (TXK): 95%; % binding compared to no inhibitor control (ULK3): 51%; % binding compared to no inhibitor control (p38-gamma): 47%
